The text below walks through data of PubChem BioAssay (NCI).

Test systems include NCI-H23 lung; M14 melanoma; HL-60(TB) leukemia; KM12 colon; SK-OV-3 ovarian; NCI-H460 lung; UO-31 renal; CAKI-1 renal; HCC-2998 colon; SW-620 colon.
What all share (assay): DTP human tumour cell line panel, 48 h

Each structure is given as a SMILES string.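 48-hour exposure; five concentrations; linearly interpolated endpoints. GI50: concentration for 50% inhibition of growth. TGI: concentration producing complete growth inhibition.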

For the compound `OC1CN(OC/C=C/c2ccccc2)CC(O)C1O` (centres undefined), the TGI with NCI-H23 lung, in the test with M14 melanoma, in the test with HL-60(TB) leukemia, with KM12 colon, in the test with SK-OV-3 ovarian and with NCI-H460 lung was above 100 µM each time. In addition, the TGI with UO-31 renal, in the test with CAKI-1 renal, in the test on HCC-2998 colon and with SW-620 colon was above 100 µM throughout.
Regarding `COC1=C(OC)C(=O)C(/C=C(\C)C(=O)O)=C(C)C1=O`, the GI50 in the test on NCI-H23 lung, in the test with M14 melanoma, with HL-60(TB) leukemia, in the test on KM12 colon, in the test on SK-OV-3 ovarian and in the test with NCI-H460 lung was above 100 µM in each case. The GI50 in the test with UO-31 renal, in the test on CAKI-1 renal, in the test on HCC-2998 colon and in the test with SW-620 colon was above 100 µM throughout. Also, the total growth inhibition concentration (TGI) in the test with NCI-H23 lung, with M14 melanoma, in the test on HL-60(TB) leukemia, with KM12 colon, in the test with SK-OV-3 ovarian and with NCI-H460 lung was above 100 µM throughout. Besides, the concentration for total growth inhibition (TGI) in the test with UO-31 renal, in the test with CAKI-1 renal, in the test on HCC-2998 colon and with SW-620 colon was above 100 µM each time.
Regarding `CCOC(=O)C1=C(Nc2ccccc2)OC/C1=N\NC(=O)Cc1ccccc1`, the TGI with NCI-H23 lung, in the test with M14 melanoma, in the test on HL-60(TB) leukemia, in the test with KM12 colon, with SK-OV-3 ovarian and in the test with NCI-H460 lung was above 50 µM throughout. For the same compound, the TGI with UO-31 renal, in the test with CAKI-1 renal, in the test with HCC-2998 colon and in the test on SW-620 colon was above 50 µM in each case.
Consider `Fc1ccc(-c2nc(-c3nc4ccc(Cl)cc4[nH]3)cc3c2[nH]c2ccccc23)cc1`, for which the GI50 is 3.66 µM in the test on NCI-H23 lung; 3.05 µM with M14 melanoma; 4.32 µM in the test with HL-60(TB) leukemia; 3.46 µM in the test on KM12 colon; 7.43 µM in the test on SK-OV-3 ovarian; 2.97 µM in the test with NCI-H460 lung. Further, the GI50 in the test with UO-31 renal is 2.4 µM; in the test with CAKI-1 renal, 3.22 µM; with HCC-2998 colon it was 5.56 µM; with SW-620 colon, 4 µM. Moreover, the TGI with NCI-H23 lung is 21.1 µM; in the test on M14 melanoma, 11.4 µM; in the test with HL-60(TB) leukemia it was 17.8 µM; in the test with KM12 colon it was 13.7 µM; with SK-OV-3 ovarian it was 24.6 µM; with NCI-H460 lung, 10.5 µM. Besides, the TGI in the test with UO-31 renal stood at 10.7 µM; in the test with CAKI-1 renal it was 24 µM; in the test on HCC-2998 colon it was 20.2 µM; in the test with SW-620 colon, 19.2 µM.
In the case of `CCOc1ccc(Cc2nccc3cc(OCC)c(OCC)cc23)cc1OCC`, the GI50 is 1.93 µM in the test on NCI-H23 lung; 9.41 µM with M14 melanoma; 3.17 µM in the test with HL-60(TB) leukemia; 4.85 µM in the test with KM12 colon; 16.3 µM with SK-OV-3 ovarian; 3.2 µM in the test with NCI-H460 lung. Besides, the GI50 in the test on UO-31 renal was 2.87 µM; in the test on CAKI-1 renal it was 4.53 µM; in the test with HCC-2998 colon it was 5.53 µM; in the test on SW-620 colon, 3.68 µM. Moreover, the concentration for total growth inhibition (TGI) in the test with NCI-H23 lung turned out to be 21.6 µM; in the test on M14 melanoma, 23.5 µM; with HL-60(TB) leukemia, 18.2 µM; in the test on KM12 colon, 24.5 µM; with SK-OV-3 ovarian it was 58.2 µM; in the test with NCI-H460 lung it was 21.8 µM. The TGI with UO-31 renal worked out at 32.4 µM; in the test on CAKI-1 renal, 41 µM; in the test with HCC-2998 colon, 21.3 µM; in the test on SW-620 colon, 24.1 µM.
`c1cncc(CNc2ccccc2-c2nnc(Nc3ccc4c(c3)OCO4)o2)c1`: the concentration for 50% growth inhibition (GI50) in the test with NCI-H23 lung is 0.0662 µM; with M14 melanoma it was 0.056 µM; in the test on HL-60(TB) leukemia it was 0.0259 µM; in the test on KM12 colon, 0.0505 µM; in the test on SK-OV-3 ovarian, 0.0914 µM; with NCI-H460 lung it was 0.0435 µM. Besides, the GI50 is 0.31 µM in the test on UO-31 renal, 0.0551 µM in the test on CAKI-1 renal, 0.113 µM in the test with HCC-2998 colon and 0.0413 µM in the test with SW-620 colon. In addition, the TGI was above 100 µM in the test on NCI-H23 lung; above 100 µM with M14 melanoma; 0.147 µM in the test on HL-60(TB) leukemia; above 100 µM in the test with KM12 colon; 7.81 µM with SK-OV-3 ovarian; above 100 µM in the test with NCI-H460 lung. The TGI in the test on UO-31 renal, in the test on CAKI-1 renal and in the test on SW-620 colon was above 100 µM in each case.
With `Cc1c2ccccc2c(C)c2c3c(ccc12)C(=O)C=CC3=O`, the TGI in the test with NCI-H23 lung is above 85.4 µM; in the test with M14 melanoma, above 81.2 µM; in the test on HL-60(TB) leukemia, 5.3 µM; in the test on KM12 colon, above 67.6 µM; in the test on SK-OV-3 ovarian, above 100 µM; with NCI-H460 lung it was above 100 µM. Besides, the TGI with UO-31 renal is 41.7 µM; in the test with CAKI-1 renal, 46.3 µM; in the test on HCC-2998 colon it was above 100 µM; in the test with SW-620 colon, 47 µM.
As for `C/C(CN1C(=O)c2ccccc2C1=O)=N\NS(=O)(=O)c1ccccc1`, the TGI in the test on NCI-H23 lung, in the test on M14 melanoma, with HL-60(TB) leukemia, in the test on KM12 colon, with SK-OV-3 ovarian and in the test with NCI-H460 lung was above 100 µM in each case. Also, the TGI with UO-31 renal, with CAKI-1 renal, in the test on HCC-2998 colon and with SW-620 colon was above 100 µM throughout.
